According to ChEMBL document CHEMBL1125524, “Adenosine A1 antagonists. 2. Structure-activity relationships on diuretic activities and protective effects against acute renal failure” (J Med Chem, 1992):
pKi: −log10 of the molar value.

Columns and labels:
Adenosine A2 receptor = Adenosine A2 receptor (Rattus norvegicus, UniProt P29276+P30543)
Rattus norvegicus [1] = assay: Urea nitrogen concentration measured after intraperitoneal administration of 1 mg/kg of compound to rats(vehicle 151.5+/-7.4); type: functional
Rattus norvegicus [2] = assay: Percent inhibition of serum creatinine by the compound given as ratio of Cr value in treated to vehicle treated ones after intraperitoneal administration of 1 mg/kg of compound to rats(vehicle 4.82+/-0.17); type: functional; details: ip
Rattus norvegicus [3] = assay: Ratio of sodium ion/potassium ion concentration in treated rats to that in control rats, at a peroral dose of 1.6 mg/Kg; type: functional
Rattus norvegicus [4] = assay: Percent inhibition of Urea nitrogen by the compound given as ratio of UN value in treated to vehicle treated ones after intraperitoneal administration of 0.1 mg/kg of compound to rats(vehicle 141.3+/-8.3); type: functional; details: ip
Rattus norvegicus [5] = assay: Serum creatinine concentration measured after intraperitoneal administration of 1 mg/kg of compound to rats(vehicle 4.82+/-0.17); type: functional
Rattus norvegicus [6] = assay: Effect on urinary excretion potassium and sodium after oral administration of 1.6 mg/kg to rats(potassium and sodium excretion in control rat is 0.169+/-0.012); type: functional, Urine
Rattus norvegicus [7] = assay: Serum creatinine concentration measured after intraperitoneal administration of 0.01 mg/kg of compound to rats(vehicle 4.50+/-0.24); type: functional
Rattus norvegicus [8] = assay: Oral diuretic activity was measured after oral administration of 0.4 mg/kg to rats(control volume is 1.72+/-0.31); type: functional, Urine
Rattus norvegicus [9] = assay: Ratio of urinary excretion value (urinary volume) in treated rats to that in control rats, at a peroral dose of 0.4 mg/Kg; type: functional, Urine
Rattus norvegicus [10] = assay: Percent inhibition of Urea nitrogen by the compound given as ratio of UN value in treated to vehicle treated ones after intraperitoneal administration of 0.01 mg/kg of compound to rats(vehicle 130.6+/-4.1); type: functional; details: ip
Rattus norvegicus [11] = assay: Ratio of urinary excretion value (urinary volume) in treated rats to that in control rats, at a peroral dose of 1.6 mg/Kg; type: functional, Urine
Rattus norvegicus [12] = assay: Percent inhibition of serum creatinine by the compound given as ratio of Cr value in treated to vehicle treated ones after intraperitoneal administration of 0.01 mg/kg of compound to rats(vehicle 4.50+/-0.24); type: functional; details: ip
Rattus norvegicus [13] = assay: Effect on urinary excretion potassium and sodium after oral administration of 0.4 mg/kg to rats(potassium and sodium excretion in control rat is 0.267+/-0.044); type: functional, Urine
Rattus norvegicus [14] = assay: Percent inhibition of Urea nitrogen by the compound given as ratio of UN value in treated to vehicle treated ones after intraperitoneal administration of 1 mg/kg of compound to rats(vehicle 151.5+/-7.4); type: functional; details: ip
Rattus norvegicus [15] = assay: Ratio of urinary excretion value (Na+ concentration) in treated rats to that in control rats, at a peroral dose of 1.6 mg/Kg; type: functional, Urine
Rattus norvegicus [16] = assay: Percent inhibition of serum creatinine by the compound given as ratio of Cr value in treated to vehicle treated ones after intraperitoneal administration of 0.1 mg/kg of compound to rats(vehicle 3.62+/-0.23); type: functional; details: ip
Rattus norvegicus [17] = assay: Ratio of sodium ion/potassium ion concentration in treated rats to that in control rats, at a peroral dose of 0.4 mg/Kg; type: functional
Rattus norvegicus [18] = assay: Urea nitrogen concentration measured after intraperitoneal administration of 0.01 mg/kg of compound to rats(vehicle 130.6+/-4.1); type: functional
Rattus norvegicus [19] = assay: Urea nitrogen concentration measured after intraperitoneal administration of 0.1 mg/kg of compound to rats(vehicle 141.3+/-8.3); type: functional
Rattus norvegicus [20] = assay: Serum creatinine concentration measured after intraperitoneal administration of 0.1 mg/kg of compound to rats(vehicle 3.62+/-0.23); type: functional
Rattus norvegicus [21] = assay: Ratio of urinary excretion value (Na+ concentration) in treated rats to that in control rats, at a peroral dose of 0.4 mg/Kg; type: functional, Urine
Rattus norvegicus [22] = assay: Oral diuretic activity was measured after oral administration of 1.6 mg/kg to rats(control volume is 0.97+/-0.05); type: functional, Urine
Rattus norvegicus [23] = assay: Oral diuretic activity was measured after oral administration of 1.6 mg/kg to rats(control volume is 0.79+/-0.12); type: functional, Urine
Rattus norvegicus [24] = assay: Effect on urinary excretion potassium and sodium after oral administration of 1.6 mg/kg to rats(potassium and sodium excretion in control rat is 0.105+/-0.002); type: functional, Urine
Rattus norvegicus [25] = assay: Effect on urinary excretion potassium and sodium after oral administration of 25 mg/kg to rats(potassium and sodium excretion in control rat is 0.180+/-0.024); type: functional, Urine
Rattus norvegicus [26] = assay: Ratio of urinary excretion value (Na+ concentration) in treated rats to that in control rats, at a peroral dose of 25 mg/Kg; type: functional, Urine
Rattus norvegicus [27] = assay: Ratio of urinary excretion value (urinary volume) in treated rats to that in control rats, at a peroral dose of 25 mg/Kg; type: functional, Urine
Rattus norvegicus [28] = organism: Rattus norvegicus; assay: animal or person; details: ip, read-out: Inhibition, dose 1 mg/kg, route intraperitoneal
Adenosine receptor A1 = biological target: T1, Adenosine receptor A1 (Cavia porcellus, UniProt P47745)
T1 sequence (P47745 whole entry): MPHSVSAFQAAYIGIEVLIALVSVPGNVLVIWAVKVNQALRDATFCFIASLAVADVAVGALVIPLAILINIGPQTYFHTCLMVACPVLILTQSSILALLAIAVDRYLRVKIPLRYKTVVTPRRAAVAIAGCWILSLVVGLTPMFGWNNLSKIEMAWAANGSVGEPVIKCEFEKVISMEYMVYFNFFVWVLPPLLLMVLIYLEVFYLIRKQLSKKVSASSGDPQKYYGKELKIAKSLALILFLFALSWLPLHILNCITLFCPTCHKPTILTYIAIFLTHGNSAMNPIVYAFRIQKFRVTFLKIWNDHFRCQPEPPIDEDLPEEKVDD
Description: Binding affinity against adenosine A1 receptor in guinea pig forebrain membranes using N6-[3H]cyclohexyladenosine as radioligand

Rattus norvegicus [29] = assay: Ratio of sodium ion/potassium ion concentration in treated rats to that in control rats, at a peroral dose of 25 mg/Kg; type: functional
Rattus norvegicus [30] = assay: Oral diuretic activity was measured after oral administration of 25 mg/kg to rats(control volume is 1.00+/-0.09); type: functional, Urine
Rattus norvegicus [31] = assay: Percent inhibition of Urea nitrogen by the compound given as ratio of UN value in treated to vehicle treated ones after intraperitoneal administration of 1 mg/kg of compound to rats(vehicle 195.8+/-14.4); type: functional; details: Rattus norvegicus, ip
Rattus norvegicus [32] = assay: Urea nitrogen concentration measured after intraperitoneal administration of 1 mg/kg of compound to rats(vehicle 195.8+/-14.4); type: functional; details: 1 mg/kg
Rattus norvegicus [33] = assay: Serum creatinine concentration measured after intraperitoneal administration of 1 mg/kg of compound to rats(vehicle 5.07+/-0.33); type: functional; details: 1 mg/kg

CCn1c(=O)c2nc(C34CC5CC(CC3C5)C4)[nH]c2n(CC)c1=O
pKi (Adenosine A2 receptor): 5.80 | UN (Rattus norvegicus [1]): 65.9 mg/dL | inhibition in vivo at 1 mg/kg (Rattus norvegicus [2]): 57% | Na+/K+ (Rattus norvegicus [3]): 1.97 | inhibition in vivo at 0.1 mg/kg (Rattus norvegicus [4]): 68% | Cr (Rattus norvegicus [5]): 2.09 mg/dL | Na (Rattus norvegicus [6]): 0.492 m equiv 6hr-1 100g-1 | Cr (Rattus norvegicus [7]): 2.82 mg/dL | Urine volume (Rattus norvegicus [8]): 2.29 ml 6hr-1 100g-1 | T/C (Rattus norvegicus [9]): 1.33 | inhibition in vivo at 0.01 mg/kg (Rattus norvegicus [10]): 37% | T/C (Rattus norvegicus [11]): 2.99 | inhibition in vivo at 0.01 mg/kg (Rattus norvegicus [12]): 37% | Na (Rattus norvegicus [13]): 0.356 m equiv 6hr-1 100g-1 | inhibition in vivo at 1 mg/kg (Rattus norvegicus [14]): 56% | T/C (Rattus norvegicus [15]): 2.92 | inhibition in vivo at 0.1 mg/kg (Rattus norvegicus [16]): 63% | Na+/K+ (Rattus norvegicus [17]): 1.29 | UN (Rattus norvegicus [18]): 81.7 mg/dL | UN (Rattus norvegicus [19]): 44.5 mg/dL | Cr (Rattus norvegicus [20]): 1.44 mg/dL | T/C (Rattus norvegicus [21]): 1.33 | Urine volume (Rattus norvegicus [22]): 2.9 ml 6hr-1 100g-1

CCCn1c(=O)c2nc(C3CC4CCC3C4)[nH]c2n(CCC)c1=O (stereo in doubt; 19)
Urine volume (Rattus norvegicus [23]): 2.48 ml 6hr-1 100g-1 | Ki (Adenosine A2 receptor): 440 nM | Na (Rattus norvegicus [24]): 0.337 m equiv 6hr-1 100g-1 | Na (Rattus norvegicus [25]): 0.427 m equiv 6hr-1 100g-1 | Na+/K+ (Rattus norvegicus [3]): 2.04 | T/C (Rattus norvegicus [26]): 2.37 | T/C (Rattus norvegicus [11]): 3.14 | T/C (Rattus norvegicus [27]): 2.54 | inhibition in vivo at 1 mg/kg (Rattus norvegicus [28]): 49% | T/C (Rattus norvegicus [15]): 3.22 | pKi (Adenosine receptor A1): 8.42 | Na+/K+ (Rattus norvegicus [29]): 1.84 | Urine volume (Rattus norvegicus [30]): 2.54 ml 6hr-1 100g-1 | inhibition in vivo at 1 mg/kg (Rattus norvegicus [31]): 48% | UN (Rattus norvegicus [32]): 101 mg/dL | Cr (Rattus norvegicus [33]): 2.59 mg/dL
